Biological target: NaV1.7 (Homo sapiens (Human), UniProt Q15858)
Assay: NaV1.7 IC50 of Table 1 (IonWorks Barracuda population patch clamp or ligand binding assay; table does not say which)
Assay type: cell-based
Conditions: HEK 293 cells expressing NaV1.7
Experimental: Ion Works Barracuda population patch clamp (PPC). PPC measurements were performed using an IonWorks Barracuda instrument (Molecular Devices Corporation, Union City, Calif.) using either PatchPlate™ PPC substrates (Molecular Devices Corporation) with 64 apertures per well. The ability to average currents from 64 recordings from each well greatly improves data consistency and recording success rates in the measurement of NaV1.7 mediated ionic currents. Calculated leak current was digitally subtracted from the total cell NaV1.7 current for each sample point acquired.
NaV1.7 currents were elicited by a voltage clamp protocol designed to bias the NaV1.7 channels to their inactivated state as follows. […] This was followed by a relatively brief hyperpolarization to −100 mv for 300 ms, then a 20 msec test pulse to −20 mV to elicit the NaV1.7 current used to measure the pharmacology of all test compounds. Compounds were incubated for 600 sec between the pre- and post-compound reads. […] The same solutions were used to record NaV1.5 currents, with the following voltage clamp protocol. NaV1.5 currents were elicited by a voltage clamp protocol designed to bias the NaV1.5 channels to their inactivated state as follows. […] This was followed by a relatively brief hyperpolarization to −100 mv for 30 ms, then a 20 msec test pulse to −10 mV to elicit the NaV1.5 current used to measure the pharmacology of all test compounds.
HEK 293 cells expressing NaV1.7 and NaV1.5 channels, were used (Essen Biosciences, Ann Arbor, Mich.). […] Cells were grown to 70% to 90% confluence in a flask and removed from the incubator (37° C., 5% CO2) 1 to 3 days after plating. Growth medium was aspirated from the culture flasks. […] Next a total of 2 mL TrypLE (Gibco) solution was added, and the flasks containing cells were sat for 3 min at RT, after which, the cells became visibly rounded and were easily dislodged from the bottom of the flask with a few brief taps on a solid surface. A total of 8 mL of media was added to the flask to inactivate the TrypLE, and the mixture was centrifuged at 910 rpm for 4 min. The cell supernatant was decanted, and the cell pellets were resuspended in 5-6 mL of external solution followed by gentle triturations using a 10 ml pipette, and transferred to a 15 ml conical tube and immediately brought to the IW Barracuda instrument.
Peak membrane currents were analyzed with IW Barracuda software and exported to Excel for further analysis. Concentration response curve fitting was performed with BMS in-house software. IC50 values were obtained by fits of the Hill equation to the average percent inhibition data plotted versus compound concentration. […] Results are reported in Table 1 (NaV1.7 Barra IC50 in nM and NaV1.5 Barra IC50 in nM).
hNaV1.7 binding affinities were determined with a filtration binding assay using purified membranes from HEK293 cells stably expressing hNaV1.7. HEK293 cells from a 10-stack cell culture flask (approximately 10^10 cells) were dissociated, frozen, and stored at −80° C. To prepare membranes, the frozen cell pellet was thawed and suspended in 6 ml hypotonic lysis buffer (50 mM HEPES, 0.1% mammalian protease inhibitor cocktail). 1 ml of resuspended cells was added to an additional 6 ml of lysis buffer and homogenized with 30 strokes of a tight pestle in a glass homogenizer. Homogenate was centrifuged at 1000×g for 10 minutes at 4° C. and the resulting supernatant was further centrifuged at 38,500×g for 60 minutes at 4° C. The resulting pellet was resuspended in binding buffer (50 mM HEPES, 130 mM NaCl, 5.4 mM KCl, 0.8 mM MgCl2, 5 mM glucose, pH 7.4) and needle homogenized with a 25 gauge needle. Protein concentration was determined with a BCA protein assay. Purified membranes were aliquoted, flash frozen in an ethyl alcohol dry ice bath, and stored at −80° C.

Sequence of NaV1.7 (Q15858 whole entry): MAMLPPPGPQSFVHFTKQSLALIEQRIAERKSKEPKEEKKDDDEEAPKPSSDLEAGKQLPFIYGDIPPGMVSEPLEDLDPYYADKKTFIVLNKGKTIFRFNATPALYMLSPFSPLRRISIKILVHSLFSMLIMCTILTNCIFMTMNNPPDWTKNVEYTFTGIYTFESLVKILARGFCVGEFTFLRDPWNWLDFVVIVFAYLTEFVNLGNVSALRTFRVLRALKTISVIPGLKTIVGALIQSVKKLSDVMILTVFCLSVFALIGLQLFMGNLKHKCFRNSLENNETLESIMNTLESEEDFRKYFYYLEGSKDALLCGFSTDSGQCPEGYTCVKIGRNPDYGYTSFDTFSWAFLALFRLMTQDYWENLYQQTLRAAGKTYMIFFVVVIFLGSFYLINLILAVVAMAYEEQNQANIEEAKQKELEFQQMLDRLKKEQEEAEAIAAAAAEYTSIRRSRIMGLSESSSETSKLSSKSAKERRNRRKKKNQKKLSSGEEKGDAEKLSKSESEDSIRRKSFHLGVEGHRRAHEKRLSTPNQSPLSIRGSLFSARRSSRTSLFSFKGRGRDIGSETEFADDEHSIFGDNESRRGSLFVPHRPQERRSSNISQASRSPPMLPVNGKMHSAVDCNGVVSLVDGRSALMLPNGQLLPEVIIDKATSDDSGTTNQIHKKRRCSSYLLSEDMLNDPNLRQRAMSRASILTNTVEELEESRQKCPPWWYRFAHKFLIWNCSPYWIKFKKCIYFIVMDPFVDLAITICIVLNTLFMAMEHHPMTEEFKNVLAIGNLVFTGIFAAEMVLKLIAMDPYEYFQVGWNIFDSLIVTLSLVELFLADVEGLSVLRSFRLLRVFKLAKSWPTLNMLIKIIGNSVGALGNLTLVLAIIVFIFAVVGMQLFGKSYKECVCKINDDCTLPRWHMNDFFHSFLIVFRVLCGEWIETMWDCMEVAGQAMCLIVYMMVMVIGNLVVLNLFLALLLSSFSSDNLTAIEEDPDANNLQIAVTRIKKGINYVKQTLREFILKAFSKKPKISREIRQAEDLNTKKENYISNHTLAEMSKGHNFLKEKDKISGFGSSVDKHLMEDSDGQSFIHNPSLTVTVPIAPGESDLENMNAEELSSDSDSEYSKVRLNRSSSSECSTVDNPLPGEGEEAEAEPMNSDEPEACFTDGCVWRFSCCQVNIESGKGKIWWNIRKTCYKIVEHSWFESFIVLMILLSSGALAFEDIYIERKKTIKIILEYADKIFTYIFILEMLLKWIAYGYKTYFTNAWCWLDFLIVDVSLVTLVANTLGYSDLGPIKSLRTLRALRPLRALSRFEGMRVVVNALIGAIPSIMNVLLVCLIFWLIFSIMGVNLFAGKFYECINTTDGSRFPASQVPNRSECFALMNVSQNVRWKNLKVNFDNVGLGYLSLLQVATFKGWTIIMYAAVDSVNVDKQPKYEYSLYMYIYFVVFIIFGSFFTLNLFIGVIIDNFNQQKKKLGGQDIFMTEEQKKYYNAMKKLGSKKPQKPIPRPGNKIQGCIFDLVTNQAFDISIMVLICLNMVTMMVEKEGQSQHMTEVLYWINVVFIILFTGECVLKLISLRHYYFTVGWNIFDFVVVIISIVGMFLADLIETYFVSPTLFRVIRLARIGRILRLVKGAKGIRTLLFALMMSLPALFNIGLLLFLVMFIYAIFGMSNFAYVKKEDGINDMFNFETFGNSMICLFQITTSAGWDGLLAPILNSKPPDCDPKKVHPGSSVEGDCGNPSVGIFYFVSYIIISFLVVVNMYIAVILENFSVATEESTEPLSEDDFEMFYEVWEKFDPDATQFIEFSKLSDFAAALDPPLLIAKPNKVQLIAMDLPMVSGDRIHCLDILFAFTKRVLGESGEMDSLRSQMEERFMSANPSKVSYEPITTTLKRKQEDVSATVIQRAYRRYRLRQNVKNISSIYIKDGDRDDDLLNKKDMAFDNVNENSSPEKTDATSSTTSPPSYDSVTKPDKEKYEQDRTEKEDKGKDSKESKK

Q: How did the IC50 turn out when NC1CCC(CCOc2cc(F)c(S(=O)(=O)Nc3ncns3)cc2F)(c2ccccc2)CC1 (single isomer, unassigned) [Example 49, 4-(2-(4-amino-1-phenylcyclohexyl)ethoxy)-2,5-difluoro-N-(1,2,4-thiadiazol-5-yl)benzenesulfonamide] was run?
A: The IC50 was 15 nM.

Q: How did the IC50 turn out when NC1CCC(CCOc2cc(F)c(S(=O)(=O)Nc3ncns3)cc2F)(c2ccccc2)CC1 (single isomer, unassigned) [Example 50, 4-(2-(4-amino-1-phenylcyclohexyl)ethoxy)-2,5-difluoro-N-(1,2,4-thiadiazol-5-yl)benzenesulfonamide] was run?
A: The IC50 was 473 nM.

Q: CC1(CCOc2cc(F)c(S(=O)(=O)Nc3ncns3)cc2F)CCC(N)CC1 (single isomer, unassigned) [Example 56, 4-(2-((1s,4s)-4-Amino-1-methylcyclohexyl)ethoxy)-2,5-difluoro-N-(1,2,4-thiadiazol-5-yl)benzenesulfonamide] was tested. Which IC50 did it give?
A: Its IC50 is 78 nM.

Q: CC1(CCOc2cc(F)c(S(=O)(=O)Nc3ncns3)cc2F)CCC(N)CC1 (single isomer, unassigned) [Example 57, 4-(2-((1s,4s)-4-Amino-1-methylcyclohexyl)ethoxy)-2,5-difluoro-N-(1,2,4-thiadiazol-5-yl)benzenesulfonamide] was tested. Which IC50 did it give?
A: Its IC50 is 383 nM.

Q: NC1CCC(COc2cc(F)c(S(=O)(=O)Nc3ncns3)cc2F)(Cc2ccc(Cl)c(F)c2)CC1 (single isomer, unassigned) [Example 61, 4-((4-amino-1-(4-chloro-3-fluorobenzyl)cyclohexyl)methoxy)-2,5-difluoro-N-(1,2,4-thiadiazol-5-yl)benzenesulfonamide] was tested. Which IC50 did it give?
A: The IC50 was 52 nM.

Q: How did the IC50 turn out when NC1CCC(COc2cc(F)c(S(=O)(=O)Nc3ncns3)cc2F)(Cc2ccc(Cl)c(F)c2)CC1 (single isomer, unassigned) [Example 62, 4-((4-amino-1-(4-chloro-3-fluorobenzyl)cyclohexyl)methoxy)-2,5-difluoro-N-(1,2,4-thiadiazol-5-yl)benzenesulfonamide] was run?
A: The IC50 was 55 nM.

Q: How did the IC50 turn out when O=S(=O)(Nc1nccs1)c1cc(Cl)c(NCCC2CCCNC2)cc1F (centres unmarked) [Example 2, 5-Chloro-2-fluoro-4-((2-(piperidin-3-yl)ethyl)amino)-N-(thiazol-2-yl)benzenesulfonamide] was run?
A: The IC50 was 12 nM.

Q: Which IC50 does the source give for CN1CCC(CCNc2cc(F)c(S(=O)(=O)Nc3nccs3)cc2Cl)CC1 [Example 5, 5-Chloro-2-fluoro-4-((2-(1-methylpiperidin-4-yl)ethyl)amino)-N-(thiazol-2-yl)benzenesulfonamide] here?
A: The IC50 was 70 nM.

Q: Which IC50 does the source give for O=S(=O)(Nc1nccs1)c1cc(Cl)c(NCC2CNCCO2)cc1F (centres unmarked) [Example 6, 5-Chloro-2-fluoro-4-((morpholin-2-ylmethyl)amino)-N-(thiazol-2-yl)benzenesulfonamide] here?
A: Its IC50 is 67 nM.

Q: With O=S(=O)(Nc1nccs1)c1cc(Cl)c(NCC2(CN3CCOCC3)CC2)cc1F [Example 8, 5-Chloro-2-fluoro-4-(((1-(morpholinomethyl)cyclopropyl)methyl)amino)-N-(thiazol-2-yl)benzenesulfonamide] as the compound, how does the IC50 read?
A: Its IC50 is 181 nM.

Q: How did the IC50 turn out when O=S(=O)(Nc1nccs1)c1cc(Cl)c(NCC2(CN3CCCC3)CC2)cc1F [Example 12, 5-Chloro-2-fluoro-4-(((1-(pyrrolidin-1-ylmethyl)cyclopropyl)methyl)amino)-N-(thiazol-2-yl)benzenesulfonamide] was run?
A: The IC50 was 11 nM.

Q: For O=S(=O)(Nc1nccs1)c1cc(Cl)c(NCCC2CCNC2)cc1F (centres unmarked) [Example 13, 5-Chloro-2-fluoro-4-((2-(pyrrolidin-3-yl)ethyl)amino)-N-(thiazol-2-yl)benzenesulfonamide], which IC50 is on record?
A: Its IC50 is 17 nM.

Q: For O=S(=O)(Nc1nccs1)c1cc(Cl)c(NCC2CNC2)cc1F [Example 15, 4-((Azetidin-3-ylmethyl)amino)-5-chloro-2-fluoro-N-(thiazol-2-yl)benzenesulfonamide], which IC50 is on record?
A: The IC50 was 394 nM.

Q: Which IC50 does the source give for O=S(=O)(Nc1nccs1)c1cc(Cl)c(NCCC2CNC2)cc1F [Example 16, 4-((2-(Azetidin-3-yl)ethyl)amino)-5-chloro-2-fluoro-N-(thiazol-2-yl)benzenesulfonamide] here?
A: Its IC50 is 29 nM.

Q: Which IC50 does the source give for N[C@H]1CC[C@@H](CNc2cc(F)c(S(=O)(=O)Nc3ncns3)cc2Cl)CC1 [Example 19, 4-((((1s,4s)-4-Aminocyclohexyl)methyl)amino)-5-chloro-2-fluoro-N-(1,2,4-thiadiazol-5-yl)benzenesulfonamide] here?
A: Its IC50 is 16 nM.

Q: With N[C@H]1CC[C@@H](CNc2cc(F)c(S(=O)(=O)Nc3nccs3)cc2Cl)CC1 [Example 20, 4-((((1s,4s)-4-Aminocyclohexyl)methyl)amino)-5-chloro-2-fluoro-N-(thiazol-2-yl)benzenesulfonamide] as the compound, how does the IC50 read?
A: The IC50 was 7 nM.

Q: Which IC50 does the source give for N[C@H]1CC[C@H](CNc2cc(F)c(S(=O)(=O)Nc3nccs3)cc2Cl)CC1 [Example 21, 4-((((1r,4r)-4-Aminocyclohexyl)methyl)amino)-5-chloro-2-fluoro-N-(thiazol-2-yl)benzenesulfonamide] here?
A: Its IC50 is 398 nM.

Q: Which IC50 does the source give for CNC1CCC(CNc2cc(F)c(S(=O)(=O)Nc3nccs3)cc2Cl)CC1 (centres unmarked) [Example 23, 5-Chloro-4-(((4-(methylamino)cyclohexyl)methyl)amino)-2-fluoro-N-(thiazol-2-yl)benzenesulfonamide] here?
A: Its IC50 is 16 nM.

Q: For CN(C)C1CCC(CNc2cc(F)c(S(=O)(=O)Nc3nccs3)cc2Cl)CC1 (centres unmarked) [Example 24, 5-Chloro-4-(((4-(dimethylamino)cyclohexyl)methyl)amino)-2-fluoro-N-(thiazol-2-yl)benzenesulfonamide], which IC50 is on record?
A: Its IC50 is 69 nM.

Q: Which IC50 does the source give for O=S(=O)(Nc1nccs1)c1cc(Cl)c(NCC2CCC(N3CCC3)CC2)cc1F (centres unmarked) [Example 25, 4-(((4-(Azetidin-1-yl)cyclohexyl)methyl)amino)-5-chloro-2-fluoro-N-(thiazol-2-yl)benzenesulfonamide] here?
A: The IC50 was 50 nM.

Q: For O=S(=O)(Nc1nccs1)c1cc(Cl)c(NCC2CCC(N3CCOCC3)CC2)cc1F (centres unmarked) [Example 26, 5-Chloro-2-fluoro-4-(((4-morpholinocyclohexyl)methyl)amino)-N-(thiazol-2-yl)benzenesulfonamide], which IC50 is on record?
A: The IC50 was 27 nM.

Q: How did the IC50 turn out when CN1CCN(C2CCC(CNc3cc(F)c(S(=O)(=O)Nc4nccs4)cc3Cl)CC2)CC1 (centres unmarked) [Example 27, 5-Chloro-2-fluoro-4-(((4-(4-methylpiperazin-1-yl)cyclohexyl)methyl)amino)-N-(thiazol-2-yl)benzenesulfonamide] was run?
A: Its IC50 is 40 nM.

Q: NC1CCCC(Nc2cc(F)c(S(=O)(=O)Nc3nccs3)cc2Cl)C1 (centres unmarked) [Example 28, 4-((3-Aminocyclohexyl)amino)-5-chloro-2-fluoro-N-(thiazol-2-yl)benzenesulfonamide] was tested. Which IC50 did it give?
A: Its IC50 is 27 nM.

Q: Which IC50 does the source give for NC1(CCNc2cc(F)c(S(=O)(=O)Nc3nccs3)cc2Cl)CCCCC1 [Example 29, 4-((2-(1-Aminocyclohexyl)ethyl)amino)-5-chloro-2-fluoro-N-(thiazol-2-yl)benzenesulfonamide] here?
A: Its IC50 is 74 nM.

Q: Which IC50 does the source give for CC1CC(C)(C)C(CNc2cc(F)c(S(=O)(=O)Nc3nccs3)cc2Cl)C1N (centres unmarked) [Example 30, 4-(((5-Amino-2,2,4-trimethylcyclopentyl)methyl)amino)-5-chloro-2-fluoro-N-(thiazol-2-yl)benzenesulfonamide] here?
A: The IC50 was 12 nM.

Q: Which IC50 does the source give for NC1CCCC1CNc1cc(F)c(S(=O)(=O)Nc2nccs2)cc1Cl (centres unmarked) [Example 31, 4-(((2-Aminocyclopentyl)methyl)amino)-5-chloro-2-fluoro-N-(thiazol-2-yl)benzenesulfonamide] here?
A: Its IC50 is 12 nM.

From US10836758B2, “Acyl sulfonamide NaV1.7 inhibitors” (BRISTOL-MYERS SQUIBB COMPANY, priority 2016, dated 2020)
